Data reported in patent US20240207355A1, “PHARMACEUTICAL COMPOSITION FOR ENHANCING ANTICANCER EFFECT OF ANTICANCER DRUG” (L-BASE CO., LTD., priority 2021, published 2024).
Like-named read-outs stand apart in the source and are kept apart here. Ends that are not written are not given here. Peptide text beside a SMILES is read from it. * marks the point of attachment. Benzoyl(3-Ph) = O=C(c1cccc(-c2ccccc2)c1)*; Benzoyl(4-OMe) = COc1ccc(C(=O)*)cc1

Tests used:
[1] = system: lung cancer cell line H1975; experiment: MTT assay, cell viability inhibition in lung cancer cell line H1975; settings: for cell viability decrease compared to the control group: human; for cytotoxicity at 0.5 µM: Osimertinib 0.5 μM alone
Protocol: (§1) Specifically, cells were seeded at 2×10^3/100 μl per well on a 96-well plate, and after culturing for 24 hours, the compound according to the present invention was administered; 4 hours later, anticancer drugs were treated to each cancer cell. The treatment concentration and treatment time of the compound and anticancer drug are specifically described in the embodiment. After completing the treatment of the compound and anticancer drug, CellTiter-96® reagent (Promega Co., USA) was reacted at 5% CO2, 37° C. after adding 10 μl per well. After 3 hours, absorbance was measured at 490 nm using a spectrophotometer (SPECTROstar^Nano, BMG).
H1975 was treated with 3-PhPh-[…] at a concentration of 25 μM and after 4 hours, Osimertinib was administered at a concentration of 1.25 μM, either alone or in combination, and the cell viability inhibitory effects were compared 68 hours later.
Subsequently, H1975 was treated with 4-PhPh-[…] at a concentration of 2 μM, and at the same time, Osimertinib was administered at a concentration of 1 μM, either alone or in combination, and the cell viability inhibitory effects were compared 48 hours later.
Next. H1975 was treated with Ac-[…] at a concentration of 10 μM, and at the same time, Osimertinib was administered at a concentration of 0.5 μM, either alone or in combination, and the cell viability inhibitory effects were compared 48 hours later.
Furthermore, H1975 was treated with 4-MeOPh-[…] at a concentration of 10 μM and simultaneously, a targeted anticancer drug, Osimertinib, was administered either alone or in combination at a concentration of 0.5 μM, and after 48 hours, the effects of inhibiting cell viability were compared.
Similarly, the lung cancer cell line H1975 was treated with 4-PhPh-[…] at a concentration of 2 μM according to the MTT assay method described in the “Experimental Materials and Methods”. At the same time, Alimta, a chemotherapeutic agent, was administered either alone or in combination at a concentration of 0.2 μM, and after 48 hours, the effects of inhibiting cell viability were compared.
The anticancer effect of the triple co-administration was compared with the 3-PhPh-[…] single treatment group, and the Osimertinib and Alimta co-treatment group.

[2] = system: H1975/OR; experiment: MTT assay, cell viability inhibition in lung cancer cell line H1975/OR; settings: for cell viability decrease compared to the control group: human, 5 μM
Protocol: as §1
Additionally, H1975/OR was treated with 3-PhPh-[…] at a concentration of 5 μM, and after 4 hours, the chemotherapeutic agent Alimta was administered either alone or in combination at a concentration of 0.1 μM, and after 72 hours, the effects of inhibiting cell viability were compared.
Subsequently, H1975/OR was treated with 3-PhPh-[…] at a concentration of 5 μM, and after 4 hours, the targeted anticancer drug Osimertinib was administered either alone or in combination at a concentration of 2.5 μM, and after 68 hours, the effects of inhibiting cell viability were compared.

[3] = system: lung cancer cell line H820; experiment: MTT assay, cell viability inhibition in lung cancer cell line H820; type: cell-based
Protocol: First, [sequence] was administered at a concentration of 10 μM to H820, and then, the targeted anticancer drug Osimertinib was administered either alone or in combination at a concentration of 5 μM, and the cell viability inhibitory effect was compared 48 hours later.

[4] = system: non-small cell lung cancer cell line PC9/OR; experiment: MTT assay, cell viability inhibition in non-small cell lung cancer cell line PC9/OR; type: cell-based; settings: 68 h
[5] = system: breast cancer cell line HCC1937; experiment: MTT assay, cell viability inhibition in breast cancer cell line HCC1937; type: cell-based
Protocol: After 24 hours, the cell viability inhibitory effect was compared.
After 48 hours, the cell viability inhibitory effect was compared.
After 72 hours, the cell viability inhibitory effect was compared.

[6] = system: H820 lung cancer cell line; experiment: Heterotransplant lung cancer animal model (H820), tumor growth; type: in vivo; settings: H820 nude mice; 3-PhPh-AQTGTGKT 10 mpk alone, 7 times at a two-day interval for 14 days; FIG. 6A
Protocol: The test substances were administered intravenously and orally 7 times at 2-day intervals.
Nude mice transplanted with H820 lung cancer cell line, an animal model of lung cancer described in the “Experimental Materials and Methods,” was treated 7 times at a two-day interval for 14 days with 3-PhPh-[…] at a dose of 10 mpk, and Osimertinib was orally administered daily at 2.5 mpk. Then, the growth of the tumor was compared.

[7] = system: p-Beclin1S15; experiment: Immunohistochemical staining of p-Beclin1S15 in H820 tumor tissue; type: in vivo; settings: H820 nude mice tumor; 3-PhPh-AQTGTGKT 10 mpk alone, 7 times at 2-day intervals; IHC; FIG. 7
Protocol: Tissue embedded in paraffin was cut to a thickness of 4 μm and affixed to a slide, then thoroughly dried and the IHC experiment procedure was performed. Each slide was deparaffinized, and endogenous enzymes were removed using citrate buffer (pH 6.0). Then, p-Beclin1S15 antibody was diluted to 1:100 and treated for 15 hours at 4° C. After washing 4 times with TBST wash buffer, rabbit HRP was treated for secondary antibody reaction and reacted at room temperature for 30 minutes. After the substrate for the antibody reaction was added, when the color appeared, the slide was washed and sealed, and after slide scanning, the result was read.
Nude mice transplanted with H820 lung cancer cell line, an animal model of lung cancer described in the “Experimental Materials and Methods,” was treated 7 times at 2-day intervals for 14 days with 3-PhPh-[…] at a dose of 10 mpk. Osimertinib was orally administered daily at 2.5 mpk, followed by tumor sampling and p-Beclin1S15 immunostaining.

[8] = system: H1975 cell line; settings: H1975 Balb/C nude mice
Protocol: H1975 cells were mixed with matrigel in a 1:1 ratio at a concentration of 5×10^6 cells/mouse, and each was subcutaneously inoculated at 200 μl into the flank of the mouse once. After the inoculation, it was confirmed that the volume of the formed tumor reached 70˜130 mm^3, and then random grouping was carried out. After the grouping, Osimertinib was administered orally every day, and after the growth of the tumor was inhibited, the point of re-growth was identified and the co-administration with the test substance was started. The test substances were administered intravenously 7 times at 2-day intervals.
After inoculating the H1975 cell line in 4-week-old female Balb/C nude mice, the presence and growth of the tumor were observed and the short and long axes of the tumor were measured to calculate the volume. When the volume of the tumor reached 70-120 mm^3, the groups were randomly separated and PBS, the negative control group, and Osimertinib at 5 mpk were orally administered daily.
The first day of administration was set as day 1, and the volume of the tumor was measured twice a week.
Accordingly, the individuals who orally administered 5 mpk Osimertinib every day for 28 days were further divided into two groups and observed until the 32nd day of administration.

C[C@H](NC(=O)c1cccc(-c2ccccc2)c1)C(=O)N[C@@H](CCC(N)=O)C(=O)N[C@H](C(=O)NCC(=O)N[C@H](C(=O)NCC(=O)N[C@@H](CCCCN)C(=O)N[C@H](C(=O)O)[C@@H](C)O)[C@@H](C)O)[C@@H](C)O ({Benzoyl(3-Ph)}-AQTGTGKT-OH)
cell viability decrease compared to the control group ([1]; 68 h, 25 μM): about 10%
cell viability decrease compared to the control group ([2]; 68 h): about 17%
cell viability decrease compared to the control group ([2]; 72 h): about 6.5%
cell viability decrease compared to the control group ([3]; human, 72 h, 40 μM): about 8%
cell viability decrease compared to the control group ([4]; human, 25 μM): approximately 0.2%
decrease in cell viability compared to the control group ([5]; human, 72 h, 10 μM): about 3%
tumor viability reduction compared to the control group (PBS administered group) [6]: about 38%
expression of p-Beclin1S15 compared to the group receiving Osimertinib alone [7]: reduced

COc1ccc(C(=O)N[C@@H](C)C(=O)N[C@@H](CCC(N)=O)C(=O)N[C@H](C(=O)NCC(=O)N[C@H](C(=O)NCC(=O)N[C@@H](CCCCN)C(=O)N[C@H](C(=O)O)[C@@H](C)O)[C@@H](C)O)[C@@H](C)O)cc1 ({Benzoyl(4-OMe)}-AQTGTGKT-OH)
cell viability decrease compared to the control group ([1]; 48 h, 10 μM): about 6%
decrease in cell viability compared to the control group ([5]; human, 48 h, 5 μM): about 4.6%

Nc1nc2[nH]cc(CCc3ccc(C(=O)N[C@@H](CCC(=O)O)C(=O)O)cc3)c2c(=O)[nH]1 [Alimta, Pemetrexed, reference compound]
cytotoxicity at 0.2 µM ([1]; Homo sapiens, NCI-H1975, 48 h, read-out: cell viability decrease compared to the control group, H1975, Alimta 0.2 μM alone, 48 hours, FIG. 1E): ~6%
cytotoxicity at 0.1 µM ([2]; Homo sapiens, NCI-H1975, 72 h, read-out: cell viability decrease compared to the control group): ~8.3%

O=C(c1cc(Cc2n[nH]c(=O)c3ccccc23)ccc1F)N1CCN(C(=O)C2CC2)CC1 [Olaparib, reference compound]
cytotoxicity at 2.5 µM ([5]; Homo sapiens, HCC1937, 24 h, read-out: decrease in cell viability compared to the control group): ~1.2%

C=CC(=O)Nc1cc(Nc2nccc(-c3cn(C)c4ccccc34)n2)c(OC)cc1N(C)CCN(C)C [Osimertinib]
cytotoxicity at 0.5 µM ([1]; Homo sapiens, NCI-H1975, 48 h, read-out: cell viability decrease compared to the control group, H1975, 48 hours, FIG. 1C): ~12%
cytotoxicity at 0.5 µM ([1]; Homo sapiens, NCI-H1975, 48 h, read-out: cell viability decrease compared to the control group, H1975, 48 hours, FIG. 1D): ~21%
cytotoxicity at 1 µM ([1]; Homo sapiens, NCI-H1975, 48 h, read-out: cell viability decrease compared to the control group, H1975, Osimertinib 1 μM alone, 48 hours, FIG. 1B): ~5%
cytotoxicity at 1.25 µM ([1]; Homo sapiens, NCI-H1975, 68 h, read-out: cell viability decrease compared to the control group, H1975, Osimertinib 1.25 μM alone, 68 hours, FIG. 1A): ~19%
cytotoxicity at 2.5 µM ([2]; Homo sapiens, NCI-H1975, 68 h, read-out: cell viability decrease compared to the control group): ~7%
cytotoxicity at 5 µM ([3]; NCI-H820, 48 h, read-out: cell viability decrease compared to the control group): ~28%
cytotoxicity at 6 µM ([3]; NCI-H820, 72 h, read-out: cell viability decrease compared to the control group): ~15%
cytotoxicity at 4 µM ([4]; PC9-OR, read-out: cell viability decrease compared to the control group): ~10%
growth of the tumor compared to the PBS group ([8]; Osimertinib 5 mpk orally daily, before resistance, P<0.001): significantly suppressed
weight loss or death of animals during the experiment ([8]; all groups): No weight loss or death

AQTGTGKT [alanine-glutamine-threonine-glycine-threonine-glycine-lysine-threonine]
cell viability decrease compared to the control group ([3]; H820, AQTGTGKT 10 μM alone, 48 hours, FIG. 2A): about 15%
decrease in cell viability compared to the control group ([5]; HCC1937, AQTGTGKT 5 μM alone, 24 hours, FIG. 4A): no decrease in cell viability
